# According to patent US20160158200A1, “Combinations of Hepatitis C Virus Inhibitors” (priority 2013, published 2016):
# Tested on: HCV genotype-1a variant with glutamine 30 changed to glutamate in the NS5A protein
# Format: cell-based
# Settings: test compound titrated with BMS-790052 fixed at 200 nM; genotype 1a Q30E replicon
# Summary of the method: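 Synergy was assessed by combining several fixed amounts of an NS5A-targeting compound with a titration of the second compound of interest.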
row,SMILES,Fold-Synergistic 1a (Q30E)
1,CC(C)C(NC(=O)C1(C)CCC(F)(F)CO1)c1ncc(-c2ccc(-c3ccc(-c4cnc(C(NC(=O)C5(C)CCC(F)(F)CO5)C(C)C)n4C)cc3)cc2)n1C (stereo not drawn) [Compound B-201],>10 fold
2,CC(C)[C@H](NC(=O)C1CCC(F)(F)CC1)c1ncc(-c2ccc3cc4cc(-c5cnc([C@@H](NC(=O)C6CCC(F)(F)CC6)C(C)C)[nH]5)ccc4cc3c2)[nH]1.O=C(O)C(F)(F)F [Compound B29],>100 fold
3,CC(C)[C@H](NC(=O)c1ccccc1)c1ncc(-c2ccc(-c3ccc(-c4cnc([C@@H]5CCCN5C(=O)c5ccccc5)[nH]4)cc3)cc2)[nH]1 [Compound Y-15],>10 fold
4,CC(C)(C)[C@H](NC(=O)C1(C2(O)CCNCC2)CCC1)c1ncc(-c2ccc(-c3ccc(-c4cnc([C@@H](NC(=O)C5(C6(O)CCOCC6)CCC5)C(C)(C)C)[nH]4)cc3)cc2)[nH]1 [Compound B84],>100 fold
5,CC(C)[C@H](NC(=O)C1(C)CCCC1)c1ncc(-c2ccc3c(c2)Cc2cc(-c4cnc([C@@H](NC(=O)C5(C)CCCC5)C(C)C)[nH]4)ccc2-3)[nH]1.O=C(O)C(F)(F)F [Compound N-72],>100 fold
6,"CC(C)(C(=O)N[C@H](c1nc(-c2ccc(-c3ccc(-c4c[nH]c([C@@H](NC(=O)C(C)(C)C(O)c5ccccc5F)C(C)(C)C)n4)cc3)cc2)c[nH]1)C(C)(C)C)C(O)c1ccccc1F (single isomer, unassigned) [Compound N-124B]",>100 fold
7,COC(C)(C)C(=O)N[C@H](c1nc(-c2ccc(-c3ccc(-c4c[nH]c([C@@H](NC(=O)C(C)(C)OC)C(C)(C)C)n4)c(F)c3)cc2)c[nH]1)C(C)(C)C.O=C(O)C(F)(F)F [Compound N-94],>100 fold
8,CC(C)(C)[C@H](NC(=O)C1(CO)COC1)c1nc(-c2ccc(-c3ccc(-c4c[nH]c([C@@H](NC(=O)C5(CO)COC5)C(C)(C)C)n4)cc3)cc2)c[nH]1 [Compound L-125],>100 fold
9,"COc1ccccc1C(O)C(C)(C)C(=O)N[C@H](c1nc(-c2ccc(-c3ccc(-c4c[nH]c([C@@H](NC(=O)C(C)(C)C(O)c5ccccc5OC)C(C)(C)C)n4)cc3)cc2)c[nH]1)C(C)(C)C (single isomer, unassigned) [Compound N-125B]",>100 fold
10,CC(=O)c1ccc2cc3cc(-c4cnc([C@@H](NC(=O)C5CCC(F)(F)CC5)C(C)(C)C)[nH]4)ccc3cc2c1 [Compound B28],>100 fold
11,CN(C(=O)OC(C)(C)C)C1(C(=O)N2CCC(C)(C)C2c2nc(-c3ccc(-c4ccc(-c5c[nH]c(C6N(C(=O)C7(N(C)C(=O)OC(C)(C)C)CC7)CCC6(C)C)n5)cc4)cc3)c[nH]2)CC1 (stereo not drawn) [Compound W-226],>10 fold
12,CC(C)(C)[C@H](NC(=O)[C@@H]1C[C@@H]2CC(F)(F)C[C@@H]2C1)c1nc(-c2ccc(-c3ccc(-c4c[nH]c([C@@H](NC(=O)[C@@H]5C[C@@H]6CC(F)(F)C[C@@H]6C5)C(C)(C)C)n4)cc3)cc2)c[nH]1 [Compound P-43],>100 fold
13,O=C(c1cnc(Cl)c(Cl)c1)N1CCC[C@H]1c1ncc(-c2ccc(-c3ccc(C4=CNC([C@@H]5CCCN5C(=O)c5cnc(Cl)c(Cl)c5)N4)cc3)cc2)[nH]1 (stereo partly drawn) [Compound S-133],<10 fold
14,"CC(C)(C(=O)N[C@H](c1nc(-c2ccc(-c3ccc(-c4cnc([C@@H](NC(=O)C(C)(C)C5CCCO5)C(C)(C)C)[nH]4)cc3)cc2)c[nH]1)C(C)(C)C)C1CCCO1 (single isomer, unassigned) [Compound B-171]",>100 fold
15,CC(C)[C@H](NC(=O)C1(C)COC1)c1ncc(-c2ccc(-c3ccc(-c4cnc([C@@H](NC(=O)C5(C)COC5)C(C)C)[nH]4)cc3)cc2)[nH]1 [Compound P-84],>100 fold
16,CC(C)(C)[C@H](NC(=O)C1C(C)(C)C1(C)C)c1nc(-c2ccc(-c3ccc(-c4c[nH]c([C@@H](NC(=O)C5C(C)(C)C5(C)C)C(C)(C)C)n4)cc3)cc2)c[nH]1 [Compound N-55],>100 fold
17,CC(C)[C@H](NC(=O)c1ccccn1)c1ncc(-c2ccc(-c3ccc(-c4cnc([C@@H](NC(=O)c5ccccn5)C(C)C)[nH]4)cc3)cc2)[nH]1 [Compound S-46],>10 fold
18,CC(C)[C@H](NC(=O)CC1CCCCCC1)c1ncc(-c2ccc(-c3ccc(-c4cnc([C@@H](NC(=O)CC5CCCCCC5)C(C)C)[nH]4)cc3)cc2)[nH]1 [Compound S-56],>100 fold
19,CC(C)(C)[C@H](NC(=O)C1CCOCC1)c1nc(-c2ccc(-c3ccc(-c4c[nH]c([C@@H](NC(=O)C5CCOCC5)C(C)(C)C)n4)cc3)cc2)c[nH]1 [Compound W-123],>100 fold
20,CC(C)[C@H](NC(=O)c1cc(Cl)cs1)c1ncc(-c2ccc(-c3ccc(-c4cnc([C@@H](NC(=O)c5cc(Cl)cs5)C(C)C)[nH]4)cc3)cc2)[nH]1 [Compound P-90],>100 fold

row,SMILES,Fold-Synergistic 1a (Q30E)
1,O=C(c1nccc2ccccc12)N1CCC[C@H]1c1ncc(-c2ccc(-c3ccc(-c4cnc([C@@H]5CCCN5C(=O)c5nccc6ccccc56)[nH]4)cc3)cc2)[nH]1 [Compound S-202],>100 fold
2,CC(C)(C)C(NC(=O)C1CC12CCC(F)(F)CC2)c1nc(-c2ccc(-c3ccc(-c4c[nH]c(C(NC(=O)C5CC56CCC(F)(F)CC6)C(C)(C)C)n4)cc3)cc2)c[nH]1 (mixture of isomers) [Compound Y-70],>100 fold
3,CC(C)[C@H](NC(=O)Cc1cccc2ccccc12)c1ncc(-c2ccc(-c3ccc(-c4cnc([C@@H](NC(=O)Cc5cccc6ccccc56)C(C)C)[nH]4)cc3)cc2)[nH]1 [Compound S-9],>10 fold
4,CC(C)(C)[C@H](NC(=O)C(=O)N1CCOCC1)c1nc(-c2ccc(-c3ccc(-c4c[nH]c([C@@H](NC(=O)C(=O)N5CCOCC5)C(C)(C)C)n4)cc3)cc2)c[nH]1 [Compound W-25],>100 fold
5,Cc1ncoc1C(=O)N[C@H](c1ncc(-c2ccc(-c3ccc(-c4cnc([C@@H](NC(=O)c5ocnc5C)C(C)C)[nH]4)cc3)cc2)[nH]1)C(C)C [Compound P-93],>100 fold
6,CC(C)[C@H](NC(=O)C(C)(C)C)c1ncc(-c2ccc(-c3ccc(-c4cnc([C@@H](NC(=O)C(C)(C)C)C(C)C)o4)cc3)cc2)o1 [Compound N-2],>100 fold
7,"CC1(C)CC1C(=O)N[C@H](c1ncc(-c2ccc(-c3ccc(-c4cnc([C@@H](NC(=O)C5CC5(C)C)C(C)(C)C)[nH]4)cc3)cc2)[nH]1)C(C)(C)C (single isomer, unassigned) [Compound B81]",>100 fold
8,CC(C)(C)[C@H](NC(=O)C1CCCCO1)c1nc(-c2ccc(-c3ccc(-c4c[nH]c([C@@H](NC(=O)C5CCCCO5)C(C)(C)C)n4)cc3)cc2)c[nH]1 (stereo partly drawn) [Compound Y-6],>100 fold
9,CC(C)(C)OC(=O)N1CCCC[C@@H]1C(=O)N[C@H](c1nc(-c2ccc(-c3ccc(-c4c[nH]c([C@@H](NC(=O)[C@H]5CCCCN5C(=O)OC(C)(C)C)C(C)(C)C)n4)cc3)cc2)c[nH]1)C(C)(C)C [Compound L-16],>100 fold
10,Cc1cc(-c2ccc(-c3c[nH]c([C@@H](NC(=O)C4CCC(F)(F)CC4)C(C)C)n3)cc2)ccc1-c1c[nH]c([C@@H](NC(=O)C2CCC(F)(F)CC2)C(C)C)n1.O=C(O)C(F)(F)F [Compound N-82],>100 fold
11,CC(C)(C)[C@H](NC(=O)c1ccncc1F)c1nc(-c2ccc(-c3ccc(-c4c[nH]c([C@@H](NC(=O)c5ccncc5F)C(C)(C)C)n4)cc3)cc2)c[nH]1 [Compound P-24],>100 fold
12,CC(C)(C)C(NC(=O)C1CC(=O)c2ccccc21)c1nc(-c2ccc(-c3ccc(-c4c[nH]c(C(NC(=O)C5CC(=O)c6ccccc65)C(C)(C)C)n4)cc3)cc2)c[nH]1 (mixture of isomers) [Compound S-257],>10 fold
13,CC(C)(C)[C@H](NC(=O)C(C)(C)C1(O)CCCCC1)c1nc(-c2ccc(-c3ccc(-c4c[nH]c([C@@H](NC(=O)C(C)(C)C5(O)CCCCC5)C(C)(C)C)n4)cc3)cc2)c[nH]1 [Compound P-160],>100 fold
14,CC(C)(C)[C@H](NC(=O)C(=O)N1CCCCCC1)c1nc(-c2ccc(-c3ccc(-c4c[nH]c([C@@H](NC(=O)C(=O)N5CCCCCC5)C(C)(C)C)n4)cc3)cc2)c[nH]1 [Compound W-32],>100 fold
15,"CC(C)(C(=O)N[C@H](c1nc(-c2ccc(-c3ccc(-c4c[nH]c([C@@H](NC(=O)C(C)(C)C(O)C5CCC(F)(F)CC5)C(C)(C)C)n4)cc3)cc2)c[nH]1)C(C)(C)C)C(O)C1CCC(F)(F)CC1 (single isomer, unassigned) [Compound N-143A]",>100 fold
16,CC(C)[C@H](NC(=O)Cc1ccccc1F)c1ncc(-c2ccc(-c3ccc(-c4cnc([C@@H](NC(=O)Cc5ccccc5F)C(C)C)[nH]4)cc3)cc2)[nH]1 [Compound S-37],>100 fold
17,CC(C)(C)[C@H](NC(=O)C(=O)N1CCCCC1)c1nc(-c2ccc(-c3ccc(-c4c[nH]c([C@@H](NC(=O)C(=O)N5CCCCC5)C(C)(C)C)n4)cc3)cc2)c[nH]1 [Compound W-11],>100 fold
18,CC(C)[C@H](NC(=O)C1(C(F)(F)F)CC1)c1ncc(-c2ccc(-c3ccc(-c4cnc([C@@H](NC(=O)C5(C(F)(F)F)CC5)C(C)C)[nH]4)cc3)cc2)[nH]1 [Compound P-88],>100 fold
19,"CC(C)(C)[C@H](NC(=O)C1CCCCC1CO)c1nc(-c2ccc(-c3ccc(-c4c[nH]c([C@@H](NC(=O)C5CCCCC5CO)C(C)(C)C)n4)cc3)cc2)c[nH]1 (single isomer, unassigned) [Compound L-141c]",>100 fold
